Test results reported in US20160257697A1, “THIOPHENE-SUBSTITUTED TETRACYCLIC COMPOUNDS AND METHODS OFUSE THEREOF FOR THE TREATMENT OF VIRAL DISEASES” (priority 2013, published 2016).
Where two headings read alike, the source gives them in different places.

What was measured:
Experiment in all cases: microbe, parasite or virus in culture
Assay type in all cases: cell-based, Hepatitis C virus (HCV)
HCV replicon 1B = conditions: Replicon Assay B
HCV replicon 1AQ30D = conditions: Replicon Assay B
HCV replicon 2B = conditions: Replicon Assay A
Summary of the method: (§1)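 Three-day treatment of replicon cells (2000/well, 5% FBS, 0.5% DMSO), followed by TaqMan RT-PCR of replicon RNA with cyclophilin as internal control.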

HCV replicon 1A = conditions: Replicon Assay A
Summary of the method: as §1

HCV replicon 1AY93H = conditions: Replicon Assay A
Summary of the method: as §1

[1] = Hepatitis C virus, HCV replicon 1B
[2] = Hepatitis C virus, read-out: 1A Q30D IC50, HCV replicon 1A Q30D
[3] = read-out: 2B IC50, HCV replicon 2B
[4] = read-out: 1A Y93H IC50, HCV replicon 1A Y93H
[5] = read-out: 1A Q30D IC50, replicon 1AQ30D
[6] = read-out: 1A Y93H IC50, replicon 1AY93H
[7] = Hepatitis C virus, read-out: 1A Q30D IC50 (nM), replicon 1AQ30D
[8] = HCV replicon 1A Q30D, read-out: 1A Q30D IC50
[9] = HCV replicon 2B, read-out: 2B IC50
[10] = HCV replicon 1A Y93H, read-out: 1A Y93H IC50
[11] = Hepatitis C virus, read-out: 2B IC50, HCV replicon 2B
[12] = Hepatitis C virus, HCV replicon 1A
[13] = Hepatitis C virus, read-out: 1A Y93H IC50, HCV replicon 1A Y93H
[14] = read-out: 1A Q30D IC50, HCV replicon 1A Q30D

Row | SMILES | IC50 (HCV replicon 1AQ30D; [2]) | IC50 (HCV replicon 2B; [3]) | IC50 (HCV replicon 1A; HCV replicon 1A) | IC50 (HCV replicon 1AY93H; [4]) | IC50 (HCV replicon 2B; read-out: 2B IC50, replicon 2B) | IC50 (HCV replicon 1A; replicon 1A) | IC50 (HCV replicon 1AY93H; [6]) | IC50 (HCV replicon 1B; HCV replicon 1B) | other results
1 | COC(=O)NC(C(=O)N1[C@@H]2C[C@@H]2C[C@H]1c1ncc(-c2ccc3c(c2)cc2n3C(c3ccc(C(F)F)s3)Oc3cc(-c4cnc([C@@H]5CCCN5C(=O)[C@@H](NC(=O)OC)C(C)C)[nH]4)cc(F)c3-2)[nH]1)C1CCOC(C)(C)C1 (single isomer, unassigned) [Compound 415] | 0.0424 nM | 12.6 pM | 2.3 pM | 4.2 pM |  |  |  |  | IC50 (HCV replicon 1B; [1]): 2.4 pM
2 | COC(=O)NC(C(=O)N1CCC[C@H]1c1ncc(-c2cc(F)c3c(c2)OC(c2ccc(C4CC4)s2)n2c-3cc3cc(-c4cnc([C@@H]5CCCN5C(=O)[C@@H](NC(=O)OC)C(C)C)[nH]4)ccc32)[nH]1)C1CCOC(C)(C)C1 (single isomer, unassigned) [Compound 215] |  |  |  |  | 10 pM | 3.1 pM | 5 pM |  | IC50 (HCV replicon 1B; replicon 1B): 3.2 pM; IC50 (HCV replicon 1AQ30D; [5]): 0.017 nM
3 | COC(=O)N[C@H](C(=O)N1CCC[C@H]1c1ncc(-c2cc(C)c3c(c2)OC(c2ccc(C4CC4)s2)n2c-3cc3cc(-c4cnc([C@@H]5CCCN5C(=O)[C@@H](NC(=O)OC)C(C)C)[nH]4)ccc32)[nH]1)C(C)C (single isomer, unassigned) [Compound 751] | 0.996 nM | 27 pM | 3.3 pM | 510 pM |  |  |  | 29 pM | 
4 | COC(=O)NC(C(=O)N1[C@@H]2C[C@@H]2C[C@H]1c1ncc(-c2ccc3c(c2)cc2n3C(c3ccc(C4CC4)s3)Oc3cc(-c4cnc([C@@H]5CCCN5C(=O)[C@@H](NC(=O)OC)C(C)C)[nH]4)cc(F)c3-2)[nH]1)C1CCOC(C)(C)C1 (single isomer, unassigned) [Compound 276] |  |  |  |  | 5 pM |  | 1 pM |  | IC50 (HCV replicon 1B; Hepatitis C virus, replicon 1B): 2.4 pM; IC50 (HCV replicon 1AQ30D; [7]): 0.018 nM; IC50 (HCV replicon 1A; Hepatitis C virus, replicon 1A): 1.5 pM
5 | COC(=O)NC(C(=O)N1CCCC1c1ncc(-c2cc(F)c3c(c2)OC(c2ccc(C4CC4)s2)n2c-3cc3cc(-c4cnc(C5CC6CC6N5C(=O)C(NC(=O)OC)C5CCOCC5)[nH]4)ccc32)[nH]1)C(C)C (mixture of isomers) [Compound 651] |  |  | 1.3 pM |  |  |  |  | 1.8 pM | IC50 (HCV replicon 1AQ30D; [8]): 0.0178 nM; IC50 (HCV replicon 2B; [9]): 8.1 pM; IC50 (HCV replicon 1AY93H; [10]): 2.3 pM
6 | COC(=O)N[C@H](C(=O)N1CCC[C@H]1c1ncc(-c2cc(F)c3c(c2)OC(c2ccc(C4CC4)s2)n2c-3cc3cc(-c4cnc([C@@H]5C[C@H]6C[C@H]6N5C(=O)[C@@H](NC(=O)OC)C5CCOCC5)[nH]4)ccc32)[nH]1)C(C)C (single isomer, unassigned) [Compound 652] |  |  | 1.2 pM |  |  |  |  | 1.7 pM | IC50 (HCV replicon 1AQ30D; [8]): 0.327 nM; IC50 (HCV replicon 2B; [9]): 53.2 pM; IC50 (HCV replicon 1AY93H; [10]): 33.1 pM
7 | COC(=O)NC(C(=O)N1CCC[C@H]1c1ncc(-c2ccc3c(c2)cc2n3C(c3ccc(C(F)(F)F)s3)Oc3cc(-c4cnc([C@@H]5CCCN5C(=O)[C@@H](NC(=O)OC)C(C)C)[nH]4)cc(F)c3-2)[nH]1)C1C[C@@H](C)O[C@@H](C)C1 (stereo partly shown) [Compound 650] | 0.0458 nM |  |  |  |  |  |  |  | IC50 (HCV replicon 1B; [1]): 1.4 pM; IC50 (HCV replicon 2B; [11]): 5 pM; IC50 (HCV replicon 1A; [12]): 2 pM; IC50 (HCV replicon 1AY93H; [13]): 5.7 pM
8 | CCc1ccc(C2Oc3cc(-c4cnc([C@@H]5CCCN5C(=O)C(NC(=O)OC)C5CCOC(C)(C)C5)[nH]4)cc(F)c3-c3cc4cc(-c5cnc([C@@H]6CCCN6C(=O)C(NC(=O)OC)C6CCOC(C)(C)C6)[nH]5)ccc4n32)s1 (single isomer, unassigned) [Compound 295] |  |  |  |  | 4 pM | 3.2 pM | 5 pM |  | IC50 (HCV replicon 1B; replicon 1B): 2.8 pM; IC50 (HCV replicon 1AQ30D; [5]): 0.017 nM
9 | COC(=O)NC(C(=O)N1CCC[C@H]1c1ncc(-c2ccc3c(c2)c(F)c2n3C(c3ccc(C4CC4)s3)Oc3cc(-c4cnc([C@@H]5CCCN5C(=O)[C@@H](NC(=O)OC)C(C)C)[nH]4)cc(F)c3-2)[nH]1)C1CCOC(C)(C)C1 (single isomer, unassigned) [Compound 413] | 0.278 nM |  |  |  |  |  |  |  | IC50 (HCV replicon 1B; [1]): 3 pM; IC50 (HCV replicon 2B; [11]): 7.1 pM; IC50 (HCV replicon 1A; [12]): 3 pM; IC50 (HCV replicon 1AY93H; [13]): 14.1 pM
10 | COC(=O)N[C@H](C(=O)N1CCC[C@H]1c1ncc(-c2ccc3c(c2)OC(c2cc4sccc4s2)n2c-3cc3cc(-c4c[nH]c([C@@H]5C[C@H]6C[C@H]6N5C(=O)[C@@H](NC(=O)OC)C(C)C)n4)ccc32)[nH]1)C(C)C (single isomer, unassigned) [Compound 716] | 28 nM | 2320 pM | 3.8 pM | 1280 pM |  |  |  |  | IC50 (HCV replicon 1B; [1]): 4 pM
11 | COC(=O)NC(C(=O)N1CCC[C@H]1c1ncc(-c2ccc3c(c2)cc2n3C(c3ccc(C(F)(F)F)s3)Oc3cc(-c4cnc([C@@H]5CCCN5C(=O)[C@@H](NC(=O)OC)C(C)C)[nH]4)cc(F)c3-2)[nH]1)C1C[C@@H](C)O[C@@H](C)C1 (single isomer, unassigned) [Compound 649] |  |  | 2 pM |  |  |  |  | 1.2 pM | IC50 (HCV replicon 1AQ30D; [8]): 0.41 nM; IC50 (HCV replicon 2B; [9]): 253 pM; IC50 (HCV replicon 1AY93H; [10]): 240 pM
12 | CCc1ccc(C2Oc3cc(-c4cnc([C@@H]5CCCN5C(=O)[C@@H](NC(=O)OC)C(C)C)[nH]4)cc(F)c3-c3cc4cc(-c5cnc([C@@H]6C[C@H]7C[C@H]7N6C(=O)C(NC(=O)OC)C6CCOC(C)(C)C6)[nH]5)ccc4n32)s1 (single isomer, unassigned) [Compound 200] |  |  |  |  | 14 pM | 2.1 pM | 2 pM |  | IC50 (HCV replicon 1B; Hepatitis C virus, replicon 1B): 3 pM; IC50 (HCV replicon 1AQ30D; [5]): 0.036 nM
13 | COC(=O)N[C@H](C(=O)N1CCC[C@H]1c1ncc(-c2cc(F)c3c(c2)OC(c2cc4c(s2)CCC4)n2c-3cc3cc(-c4cnc([C@@H]5C[C@H]6C[C@H]6N5C(=O)[C@@H](NC(=O)OC)C5CCOCC5)[nH]4)ccc32)[nH]1)C(C)C (single isomer, unassigned) [Compound 542] |  | 33.5 pM | 3.42 pM | 8.55 pM |  |  |  | 3.71 pM | IC50 (HCV replicon 1AQ30D; [14]): 0.162 nM
14 | COC(=O)N[C@H](C(=O)N1CCC[C@@H]1c1ncc(-c2cc(F)c3c(c2)OC(c2ccc(C(C)C)s2)n2c-3cc3cc(-c4c[nH]c([C@@H]5CCCN5C(=O)[C@H](NC(=O)OC)C5C[C@@H](C)O[C@@H](C)C5)n4)ccc32)[nH]1)C(C)C (stereo partly shown) [Compound 241] |  |  |  |  | 16 pM | 1.6 pM | 5 pM |  | IC50 (HCV replicon 1B; replicon 1B): 2.4 pM; IC50 (HCV replicon 1AQ30D; [5]): 0.033 nM
15 | COC(=O)NC(C(=O)N1CCC[C@H]1c1ncc(-c2ccc3c(c2)cc2n3C(c3cc4ccccc4s3)Oc3cc(-c4cnc([C@@H]5CCCN5C(=O)[C@@H](NC(=O)OC)C5CCOCC5)[nH]4)cc(F)c3-2)[nH]1)C(C)(C)F (single isomer, unassigned) [Compound 183] |  |  |  |  | 680 pM | 1.2 pM | 740 pM |  | IC50 (HCV replicon 1B; replicon 1B): 2.4 pM; IC50 (HCV replicon 1AQ30D; [5]): 1.08 nM
16 | COC(=O)NC(C(=O)N1CCC[C@H]1c1ncc(-c2ccc3c(c2)cc2n3C(c3ccc(C4CCCC4)s3)Oc3cc(-c4cnc([C@@H]5CCCN5C(=O)[C@@H](NC(=O)OC)C(C)C)[nH]4)cc(F)c3-2)[nH]1)C1C[C@@H](C)O[C@@H](C)C1 (single isomer, unassigned) [Compound 658] |  | 9.8 pM | 3.2 pM | 8.9 pM |  |  |  | 8.4 pM | IC50 (HCV replicon 1AQ30D; [14]): 0.0643 nM
17 | COC(=O)N[C@H](C(=O)N1CCC[C@H]1c1ncc(-c2cc(C)c3c(c2)OC(c2cc4c(s2)CCC4)n2c-3cc3cc(-c4cnc([C@@H]5CCCN5C(=O)[C@@H](NC(=O)OC)C5C[C@@H](C)O[C@@H](C)C5)[nH]4)ccc32)[nH]1)C(C)C (single isomer, unassigned) [Compound 548] | 1.4 nM | 23.1 pM | 7.58 pM | 65.8 pM |  |  |  |  | IC50 (HCV replicon 1B; [1]): 9.68 pM
18 | COC(=O)N[C@H](C(=O)N1CCC[C@H]1c1ncc(-c2cc(F)c3c(c2)OC(c2ccsc2)n2c-3cc3cc(-c4cnc([C@@H]5CCCN5C(=O)[C@@H](NC(=O)OC)C(C)C)[nH]4)ccc32)[nH]1)C(C)C (single isomer, unassigned) [Compound 317] |  |  |  |  | 940 pM |  | 110 pM |  | IC50 (HCV replicon 1B; Hepatitis C virus, replicon 1B): 1.6 pM; IC50 (HCV replicon 1AQ30D; [7]): 2.58 nM; IC50 (HCV replicon 1A; Hepatitis C virus, replicon 1A): 1.2 pM
19 | COC(=O)N[C@H](C(=O)N1CCC[C@H]1c1ncc(-c2cc(F)c3c(c2)OC(c2ccc(CC4CC4)s2)n2c-3cc3cc(-c4cnc([C@@H]5C[C@H]6C[C@H]6N5C(=O)[C@@H](NC(=O)OC)C(C)C)[nH]4)ccc32)[nH]1)C(C)C (single isomer, unassigned) [Compound 389] |  |  |  |  | 69.1 pM |  | 13.7 pM |  | IC50 (HCV replicon 1B; Hepatitis C virus, replicon 1B): 3.9 pM; IC50 (HCV replicon 1AQ30D; [7]): 0.23 nM; IC50 (HCV replicon 1A; Hepatitis C virus, replicon 1A): 2.7 pM
20 | COC(=O)N[C@H](C(=O)N1CCC[C@H]1c1ncc(-c2cc(F)c3c(c2)OC(c2ccc(CCF)s2)n2c-3cc3cc(-c4cnc([C@@H]5CCCN5C(=O)[C@@H](NC(=O)OC)C(C)C)[nH]4)ccc32)[nH]1)C(C)C (single isomer, unassigned) [Compound 44] |  |  |  |  | 100 pM | 1.5 pM | 12 pM |  | IC50 (HCV replicon 1B; Hepatitis C virus, replicon 1B): 1.2 pM; IC50 (HCV replicon 1AQ30D; [7]): 0.54 nM
